# In patent US5753710A, “Substituted benzyloxycarbonylguanidines, a process for their preparation, their use as a medicament or diagnostic, and a medicament containing them” (Hoechst Aktiengesellschaft, priority 1995, dated 1998):
# Counter-ions that a name gives are not always drawn.
# Target: T1, Na^+ /H^+ exchanger of rabbit erythrocytes (Oryctolagus cuniculus, UniProt P23791)
# T1 construct: endogenous in cells; host or cells: erythrocytes in blood of cholesterol-fed New Zealand White rabbits (Ivanovas)
# T1 sequence (P23791 whole entry): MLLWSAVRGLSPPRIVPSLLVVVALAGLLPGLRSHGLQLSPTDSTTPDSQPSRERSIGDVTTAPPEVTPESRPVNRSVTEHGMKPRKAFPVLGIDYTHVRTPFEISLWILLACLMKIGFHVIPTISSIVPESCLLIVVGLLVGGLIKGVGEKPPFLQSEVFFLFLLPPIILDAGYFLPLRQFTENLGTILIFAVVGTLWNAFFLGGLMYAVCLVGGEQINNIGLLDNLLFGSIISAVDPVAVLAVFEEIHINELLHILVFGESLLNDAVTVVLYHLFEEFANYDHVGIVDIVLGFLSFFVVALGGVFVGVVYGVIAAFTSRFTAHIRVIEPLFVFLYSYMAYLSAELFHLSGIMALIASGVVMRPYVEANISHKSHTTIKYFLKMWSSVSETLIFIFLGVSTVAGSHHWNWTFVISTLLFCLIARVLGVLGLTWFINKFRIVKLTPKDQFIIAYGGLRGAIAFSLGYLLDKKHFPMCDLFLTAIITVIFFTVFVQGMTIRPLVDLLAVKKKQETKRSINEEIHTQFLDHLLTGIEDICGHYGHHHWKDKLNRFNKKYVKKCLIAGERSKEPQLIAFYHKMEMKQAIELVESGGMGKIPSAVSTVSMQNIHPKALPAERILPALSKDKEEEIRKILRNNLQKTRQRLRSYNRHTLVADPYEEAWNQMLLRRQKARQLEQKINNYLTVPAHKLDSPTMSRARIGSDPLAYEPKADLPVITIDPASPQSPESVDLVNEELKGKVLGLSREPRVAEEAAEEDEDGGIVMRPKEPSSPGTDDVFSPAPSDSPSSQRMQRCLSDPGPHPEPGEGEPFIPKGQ
# Experiment: Inhibition of the Na^+ /H^+ exchanger of rabbit erythrocytes (amiloride-sensitive Na^+ influx, flame photometry)
# Assay type: cell-based, rabbit (New Zealand White)
# Details: erythrocytes of rabbits fed 2% cholesterol diet for six weeks; pH 7.4, 37° C.; hyperosmolar salt/sucrose medium
# Excerpt: Inhibition of the Na^+ /H^+ exchanger of rabbit erythrocytes
# New Zealand White rabbits (Ivanovas) received a standard diet containing 2% cholesterol for six weeks in order to activate the Na^+ /H^+ exchange and thus to be able to determine, by flame photometry, the Na^+ influx into the erythrocytes via Na^+ /H^+ exchange. The blood was removed from the aural arteries and rendered incoagulable using 25 IU of potassium heparin. A part of each sample was used for the duplicate determination of the hematocrit by means of centrifugation. Aliquots of in each case 100 μl were used for measuring the initial Na^+ content of the erythrocytes.
# In order to determine the amiloride-sensitive sodium influx, 100 μl of each blood sample were in each case incubated, at pH 7.4 and 37° C., in 5 ml of a hyperosmolar salt/sucrose medium (mmol/l: 140 NaCl, 3 KCl, 150 sucrose, 0.1 ouabain, 20 tris(hydroxymethyl)aminomethane). […] The intracellular sodium content was determined by flame photometry.
# The net influx of Na^+ was calculated from the difference between the initial sodium values and the sodium content of the erythrocytes following incubation. The amiloride-inhibitable sodium influx was calculated from the difference in the sodium content of the erythrocytes following incubation with and without amiloride 3×10^-4 mol/l. […]
smiles,measurement,value
"NC(N)=NC(=O)OCc1ccc(Oc2cccnc2)c(C(F)(F)F)c1 [Example 1, 4-(3-Pyridyloxy)-3-trifluoromethyl-benzyloxycarbonylguanidine, dihydrochloride]",IC50,< 1000 nM
